The subject of test [1] is HepG2. Description: Cell cycle arrest in human HepG2 cells assessed as accumulation at pre-G1 phase at IC50 concentration by DNase/propidium iodide staining based flow cytometry analysis (reference value: 1.59 %). It counts as functional. For orientation: A flow cytometer gives signals particle by particle.
The subject of a further test is MCF7. Briefly: Antiproliferative activity against human MCF7 cells assessed as cell growth inhibition measured after 48 hrs by MTT assay. The following applies: MCF7, 48 h. It counts as functional, cell-based.
A further test concerns HL-60. Briefly: Antiproliferative activity against human HL60 cells assessed as cell growth inhibition measured after 48 hrs by MTT assay. The format is functional, cell-based. The following applies: HL-60, 48 h. In general terms: Tetrazolium assays rely on reduction of a dye to a coloured formazan, in cell work by metabolically active cells.
Test [2] has as its system HepG2. Description: Induction of apoptosis in human HepG2 cells assessed as necrotic cells at IC50 concentration by annexinV-FITC/propidium iodide staining based flow cytometry (reference value: […]). The format is functional.
Test [3] concerns HepG2. Description: Induction of apoptosis in human HepG2 cells assessed as late apoptotic cells at IC50 concentration by annexinV-FITC/propidium iodide staining based flow cytometry (reference value: 0.38 %). The format is functional.
Test [4] relates to HepG2. Description: Induction of apoptosis in human HepG2 cells assessed as activation of caspase 3 measured after 0.5 to 1 hrs by fluorescence assay relative to control. The format is functional.
Test [5] has as its system HepG2. Briefly: Cell cycle arrest in human HepG2 cells assessed as accumulation at G2/M phase at IC50 concentration by DNase/propidium iodide staining based flow cytometry analysis (reference value: 10.06 %). It counts as functional.
Test [6] concerns HepG2. Description: Induction of apoptosis in human HepG2 cells assessed as viable cells at IC50 concentration by annexinV-FITC/propidium iodide staining based flow cytometry (reference value: 98.41 %). It counts as functional.
Test [7] deals with Tubulin beta (Homo sapiens) (UniProt P68371+Q9H4B7+Q13509+P04350+Q3ZCM7+P07437+Q13885+Q9BVA1+Q9BUF5+A6NNZ2). Briefly: Inhibition of tubulin beta polymerization in human HepG2 cells at IC50 using TMB substrate preincubated for 2 hrs followed by substrate addition measured after 15 to 20 mins in presence of GTP by ELISA relative to control. It counts as cell-based.
Test [8] has as its system HepG2. Description: Antiproliferative activity against human HepG2 cells assessed as cell growth inhibition measured after 48 hrs by MTT assay. It counts as functional, cell-based. The following applies: HepG2, 48 h.
Test [9] deals with Tubulin (Sus scrofa, UniProt P02554+P02550). Briefly: Inhibition of porcine brain tubulin polymerization assessed as decrease in fluorescence intensity measured every 60 sec for 90 mins in presence of GTP by DAPI staining based fluorescence assay.
Test [10] deals with HepG2. Description: Cell cycle arrest in human HepG2 cells assessed as accumulation at S phase at IC50 concentration by DNase/propidium iodide staining based flow cytometry analysis (reference value: 32.51 %). It counts as functional.
In test [11] the test system is HepG2. Description: Cell cycle arrest in human HepG2 cells assessed as accumulation at G0/G1 phase at IC50 concentration by DNase/propidium iodide staining based flow cytometry analysis (reference value: 57.43 %). It counts as functional.
The subject of test [12] is HepG2. Description: Induction of apoptosis in human HepG2 cells assessed as early apoptotic cells at IC50 concentration by annexinV-FITC/propidium iodide staining based flow cytometry (reference value: 0.69 %). It counts as functional.
In test [13] the target is Tubulin (Bos taurus, UniProt Q6B856+Q862L2+Q862F3). Description: Inhibition of [3H] colchicine binding to bovine brain tubulin incubated for 30 mins by scintillation proximity assay. In general terms: Scintillation proximity formats need no separation of bound from free tracer.

The structures appear in SMILES notation.

By IC50 is commonly meant the midpoint of a concentration-inhibition curve. As a reminder, the inhibition is the share of the control response that was lost under treatment. In general, Kd refers to the concentration at which binding is half-saturated. Lower therefore signals tighter binding. As a reminder, the Ki is a measure of affinity in units of concentration, obtained from inhibition or displacement. Lower therefore signals higher affinity.

As to `COc1ccc(-n2nc(C(=O)Nc3ccc(F)c(F)c3F)nc2-c2cc(OC)c(OC)c(OC)c2)cc1Cl`, the Activity in the test on HepG2 [1] is on record as 31.04%; with HepG2 [2], 2.78%; in the test on HepG2 [3], 22.2%; with HepG2 [5], 55.08%; with HepG2 [6], 68.96%; in the test with HepG2 [10], 18.61%. Besides, the Activity in the test on HepG2 [11] amounted to 26.31%; with HepG2 [12] it was 6.06%. For the same compound, the IC50 in the test with MCF7 stood at 2100 nM; in the test with HL-60 it was 2660 nM; in the test on HepG2 [8] it was 40 nM; on Tubulin [9], 760 nM. The “fold change (FC)” value in the test with HepG2 [4] amounted to 9. In test [7], the inhibition was 82%.
Turning to `COc1ccccc1NC(=O)c1nc(-c2cc(OC)c(OC)c(OC)c2)n(-c2ccc(F)c(Cl)c2)n1`, the Activity in the test with HepG2 [1] is on record as 19.22%; with HepG2 [2], 2.66%; with HepG2 [3], 11.32%; in the test with HepG2 [5], 40.56%; with HepG2 [6] it was 80.78%; in the test with HepG2 [10] it was 24.67%. In addition, the results for the Activity in the test on HepG2 [11] and in the test with HepG2 [12] were 34.77% and 5.24%, respectively. Besides, the IC50 in the test with MCF7 is 1510 nM; in the test on HL-60, 4 nM; with HepG2 [8], 350 nM; at Tubulin [13] it was 3580 nM; at Tubulin [9], 1030 nM. The “fold change (FC)” value with HepG2 [4] came out at 7. Moreover, the inhibition in test [7] worked out at 62%. The Kd on Tubulin [13] worked out at 540 nM. At Tubulin [13], the Ki was 260 nM.
With `COc1cc(-c2nc(C(=O)Nc3ccc(OC(F)(F)F)cc3)nn2-c2ccc(F)c(Cl)c2)cc(OC)c1OC`, the half-inhibitory concentration (IC50) in the test on MCF7 stood at 310 nM; in the test with HL-60, 160 nM; in the test with HepG2 [8] it was 100 nM.
Taken in the same sequence, the figures for `CCOc1ccc(NC(=O)c2nc(-c3cc(OC)c(OC)c(OC)c3)n(-c3ccc(F)c(Cl)c3)n2)cc1` were 520 nM, 600 nM and 1490 nM.
Taken in the same sequence, the figures for `COc1cc(-c2nc(C(=O)Nc3ccc(F)c(F)c3F)nn2-c2ccc(F)c(Cl)c2)cc(OC)c1OC` were 140 nM, 1320 nM and 410 nM.
Taken in the same sequence, the figures for `COc1cccc(NC(=O)c2nc(-c3cc(OC)c(OC)c(OC)c3)n(-c3ccc(F)c(Cl)c3)n2)c1` were 440 nM, 800 nM and 560 nM.
`COc1ccc(NC(=O)c2nc(-c3cc(OC)c(OC)c(OC)c3)n(-c3ccc(F)c(Cl)c3)n2)c(C)c1`: the IC50 in the test on MCF7 was determined as 1560 nM; with HL-60, 360 nM; in the test with HepG2 [8], 580 nM.
Taken in the same sequence, the figures for `COc1cc(-c2nc(C(=O)Nc3ccccc3F)nn2-c2ccc(F)c(Cl)c2)cc(OC)c1OC` were 190 nM, 10 nM and 12700 nM.
Taken in the same sequence, the figures for `COc1ccc(NC(=O)c2nc(-c3cc(OC)c(OC)c(OC)c3)n(-c3ccc(F)c(Cl)c3)n2)cc1` were 650 nM, 2260 nM and 750 nM.
As for `COc1cc(-c2nc(C(=O)Nc3cc(F)cc(F)c3)nn2-c2ccc(F)c(Cl)c2)cc(OC)c1OC`, the figures for the IC50 with MCF7, with HL-60 and in the test on HepG2 [8] were 4910 nM, 3750 nM and 710 nM, respectively.
Turning to `COc1ccc(C)cc1NC(=O)c1nc(-c2cc(OC)c(OC)c(OC)c2)n(-c2ccc(F)c(Cl)c2)n1`, the results for the IC50 in the test on MCF7, with HL-60 and in the test on HepG2 [8] were 130 nM, 1820 nM and 2820 nM, respectively.
Taken in the same sequence, the figures for `COc1cc(-c2nc(C(=O)Nc3ccc(F)c(Cl)c3)nn2-c2ccc(F)c(Cl)c2)cc(OC)c1OC` were 120 nM, 5470 nM and 900 nM.
Take `COc1ccc(NC(=O)c2nc(-c3cc(OC)c(OC)c(OC)c3)n(-c3ccc(F)c(Cl)c3)n2)cc1Cl`: the IC50 came to 1010 nM in the test with MCF7, 700 nM in the test with HL-60 and 2140 nM with HepG2 [8].
Taken in the same sequence, the figures for `COc1cc(-c2nc(C(=O)Nc3cccc(F)c3)nn2-c2ccc(F)c(Cl)c2)cc(OC)c1OC` were 110 nM, 620 nM and 990 nM.
For the compound `COc1ccc(-n2nc(C(=O)Nc3ccc(F)c(Cl)c3)nc2-c2cc(OC)c(OC)c(OC)c2)cc1Cl`, the IC50 is 30 nM in the test on MCF7; 230 nM in the test on HL-60; 680 nM with HepG2 [8]; 2110 nM at Tubulin [13]; 700 nM at Tubulin [9]. The inhibition in test [7] stood at 73%. The Kd on Tubulin [13] amounted to 320 nM. On Tubulin [13], this compound gave a Ki of 150 nM.
Regarding `COc1cc(-c2nc(C(=O)Nc3ccccc3)nn2-c2ccc(F)c(Cl)c2)cc(OC)c1OC`, the figures for the IC50 in the test with MCF7, in the test with HL-60 and with HepG2 [8] were 170 nM, 1000 nM and 2230 nM, respectively.
Taken in the same sequence, the figures for `COc1cc(-c2nc(C(=O)Nc3ccc(C(=O)O)cc3)nn2-c2ccc(F)c(Cl)c2)cc(OC)c1OC` were 50 nM, 1180 nM and 1590 nM.
`COc1ccc(-n2nc(C(=O)Nc3ccc(OC(F)(F)F)cc3)nc2-c2cc(OC)c(OC)c(OC)c2)cc1Cl`: the IC50 in the test with MCF7 came to 39 nM; in the test on HL-60, 810 nM; in the test with HepG2 [8] it was 7110 nM.
Regarding `COc1cc(-c2nc(C(=O)Nc3ccc(F)cc3)nn2-c2ccc(F)c(Cl)c2)cc(OC)c1OC`, the IC50 in the test with MCF7 was 180 nM; in the test with HL-60 it was 300 nM; with HepG2 [8] it was 520 nM.

Values taken from ChEMBL document CHEMBL4311964, “Potent combretastatin A-4 analogs containing 1,2,4-triazole: Synthesis, antiproliferative, anti-tubulin activity, and docking study” (Eur J Med Chem, 2019).
